Values of other authors, collected in publication PMC4696931 (Advanced healthcare materials, 2015).

Key:
MMP2 [1] = conditions: linker peptide alone
MMP2 [2] = conditions: PEG hydrogels with the peptide as crosslinker

SGESPAY↓YTA [NRL1]
reported kcat KM^−1 for MMP2 (MMP2 [1]): 440000 M⁻¹ s⁻¹
time to degradation of hydrogels crosslinked with the sequence in MMP2 (MMP2 [2]): ~ 1 days
